Source: patent US20260248787A9, “MEDICAMENT FOR TREATING CANCER COMPRISING OPTICALLY ACTIVE AZABICYCLO RING DERIVATIVE” (Sumitomo Pharma Co., Ltd., priority 2023, published 2026)

System: MOLM-13 cells
Experiment: Tumor-bearing mice transplanted with MOLM-13 cells, with gilteritinib, T/C (Example 12)
Assay type: in vivo
Conditions: MOLM-13 tumor-bearing mice; oral; 30 mg/kg; 18 days
Description: The antitumor effects of the present compound and gilteritinib were evaluated. The present compound was weighed and dissolved in 0.5 w/v % Methyl Cellulose 400 solution to give the compound concentrations of 20 mg/mL and 10 mg/mL. Gilteritinib was weighed and suspended in 0.5 w/v % Methyl Cellulose 400 solution to give the compound concentrations of 3 mg/mL.
MOLM-13 cells (DSMZ) were intradermally implanted around the ventral region of 5-week old NOD. CB17-PrkdcSCID/J mice (female, The Jackson Laboratory Japan) at 1×10^6 cells/mouse. After confirming the engraftment of MOLM-13 cells 6 days after the transplantation, the present compound was orally administered to the mice at a dose of 100 mg/kg or 200 mg/kg, and gilteritinib was orally administered to the mice at a dose of 30 mg/kg, once a day for 18 days. The tumor volume was measured over time from the start of the administration, and the reduction effect of the tumor volume due to the compound-administration was evaluated. The tumor volume was calculated by the following formula using short axis and long axis of the tumor measured with an electronic caliper (Mitutoyo).
The control administration group in which only the solvent was administered and the test substance administration group were compared, and T/C was calculated using the following formula to evaluate the antitumor effect.

Molecule `CCc1nc(C(N)=O)c(Nc2ccc(N3CCC(N4CCN(C)CC4)CC3)c(OC)c2)nc1NC1CCOCC1` [gilteritinib, reference compound] has a T/C of 5.3%.
